In patent US9050346B2, “Bromodomain inhibitors” (AbbVie Inc., priority 2013, dated 2015):

Tests used:
BRD4 (BDI_K57-E168) = target: T1, BRD4 (BDI_K57-E168) (Homo sapiens, UniProt O60885); assay: TR-FRET bromodomain binding assay, BRD4 first bromodomain; conditions: His-tagged BD1, 100 nM Alexa647 probe; Ki calculated from IC50; dilution protocol A-G
T1 construct: BD1: amino acids K57-E168; made in house
Protocol: (§1) A time-resolved fluorescence resonance energy transfer (TR-FRET) assay was used to determine the affinities of compounds of the Examples listed in Table 1 for each bromodomain of BRD4. His-tagged first (BD1: amino acids K57-E168) and second (BD2: amino acids E352-E168) bromodomains of BRD4 were expressed and purified. An Alexa647-labeled BET-inhibitor was used as the fluorescent probe in the assay.
(§2) Compound dilution series were prepared in DMSO via an approximately 3-fold serial dilution from one of the following: • Assay method A: 2.5 mM-800 nM • Assay method B: 2.5 mM-797 nM • Assay method C: 1250 μM-21 nM • Assay method D: 500 μM-8.5 nM • Assay method E: 0.47 mM to 7.8 nM • Assay method F: 250 μM-4.2 nM • Assay method G: 0.047 mM to 0.78 nM or 5-fold serial dilution from Assay Method A or Assay Method B.
(§3) For Assay methods A, C, D, and F: Compounds were then diluted 6:100 in assay buffer (20 mM Sodium Phosphate, pH 6.0, 50 mM NaCl, 1 mM Ethylenediaminetetraacetic acid, 0.01% Triton X-100, 1 mM DL-Dithiothreitol) to yield 3× working solutions. Six microliters (μL) of the working solution was then transferred to white, low-volume assay plates (Costar #3673). A 1.5× assay mixture containing His-tagged bromodomain, Europium-conjugated anti-His antibody (Invitrogen PV5596) and the Alexa-647-conjugated probe molecule was also prepared. Twelve μL of this solution were added to the assay plate to reach a final volume of 18 μL.
(§4) For Assay methods B, E, and G: Compound dilutions were added directly into white, low-volume assay plates (Perkin Elmer Proxiplate 384 Plus#6008280) using a Labcyte Echo in conjunction with Labcyte Access and Thermo Multidrop CombinL robotics. Compounds were then suspended in eight microliters (μL) of assay buffer (20 mM Sodium Phosphate, pH 6.0, 50 mM NaCl, 1 mM Ethylenediaminetetraacetic acid disodium salt dihydrate, 0.01% Triton X-100, 1 mM DL-Dithiothreitol) containing His-tagged bromodomain, Europium-conjugated anti-His antibody (Invitrogen PV5596) and Alexa-647-conjugated probe.
(§5) The final concentration of 1× assay mixture for assay methods A, B, C, D, E, F, and G contains 2% DMSO, 8 nM His-tagged bromodomain, 1 nM Europium-conjugated anti-His-tag antibody and 100 nM or 30 nM probe (for BDI or BDII, respectively) and compound concentration in the range of: 50 μM-16 nM for method A, 49.02 μM-15.63 nM for method B, 25 μM-423 pM for method C, 10 μM-169 pM for method D, 9.19 μM-150 pM for method E, 5 μM-85 pM for method F, and 0.92 μM-15 pM for method G.
(§6) After a one-hour equilibration at room temperature, TR-FRET ratios were determined using an Envision multilabel plate reader (Ex 340, Em 495/520).
(§7) TR-FRET data were normalized to the means of 24 no-compound controls (“high”) and 8 controls containing 1 μM un-labeled probe (“low”). Percent inhibition was plotted as a function of compound concentration and the data were fit with the 4 parameter logistic equation to obtain IC50s Inhibition constants (Ki) were calculated from the IC50s, probe Kd and probe concentration. Typical Z′ values were between 0.65 and 0.75. The minimum significant ratio was determined to evaluate assay reproducibility (Eastwood et al., (2006) J Biomol Screen, 11: 253-261). The MSR was determined to be 2.03 for BDI and 1.93 for BDII, and a moving MSR (last six run MSR overtime) for both BDI and BDII was typically <3.

[1] = system: breast cancer cell line MX-1; assay: MX-1 cell line proliferation assay (3-day, Cell Titer Glo); format: cell-based; conditions: Homo sapiens, MX1, MX-1 cells, 72 h, top concentration 3 μM, read-out: Cellular proliferation: EC50
Protocol: The impact of compounds of the Examples on cancer cell proliferation was determined using the breast cancer cell line MX-1 (ATCC) in a 3-day proliferation assay and the data are reported in Table 1. MX-1 cells were maintained in RPMI 1640 medium (Sigma) supplemented with 10% FBS at 37 C.° and an atmosphere of 5% CO2. For compound testing, MX-1 cells were plated in 96-well black bottom plates at a density of 5000 cells/well in 90 μL of culture media and incubated at 37° overnight to allow cell adhesion and spreading. Compound dilution series were prepared in DMSO via a 3-fold serial dilution from 3 mM to 0.1 μM. The DMSO dilution series were then diluted 1:100 in phosphate buffered saline, and 10 μL of the resulted solution were added to the appropriate wells of the MX-1 cell plate. The final compound concentrations in the wells were 3, 1, 0.3, 0.1, 0.03, 0.01, 0.003, 0.001, 0.0003 and 0.0001 μM.
Luminescence readings from the Cell Titer Glo assay were normalized to the DMSO treated cells and analyzed using the GraphPad Prism software with sigmoidal curve fitting to obtain EC50s. The minimum significant ratio (MSR) was determined to evaluate assay reproducibility (Eastwood et al., (2006) J Biomol Screen, 11: 253-261).

BRD4 (BDII_E352-M457) = target: T2, BRD4 (BDII_E352-M457) (Homo sapiens, UniProt O60885); assay: TR-FRET bromodomain binding assay, BRD4 second bromodomain
T2 construct: made in house
Protocol: as §1, §2, §3, §4, §5, §6, §7

Row | Ki (BRD4 (BDI_K57-E168)) | EC50 [1] | Ki (BRD4 (BDII_E352-M457)) | SMILES
1 | 3.41 nM | 71.6 nM | 29.3 nM | CCOC(=O)c1cc2c(-c3cc(NS(C)(=O)=O)ccc3Oc3ccc(F)cc3F)[nH]c(C)c2c(=O)[nH]1 [Example 9, ethyl 1-{2-(2,4-difluorophenoxy)-5-[(methylsulfonyl)amino]phenyl}-3-methyl-4-oxo-4,5-dihydro-2H-pyrrolo[3,4-c]pyridine-6-carboxylate]
2 | 1.46 nM | 57.4 nM | 8.61 nM | CCOC(=O)c1cc2c(-c3cc(NS(=O)(=O)CC)ccc3Oc3ccc(F)cc3F)[nH]c(C)c2c(=O)[nH]1 [Example 10, ethyl 1-(2-(2,4-difluorophenoxy)-5-(ethylsulfonamido)phenyl)-3-methyl-4-oxo-4,5-dihydro-2H-pyrrolo[3,4-c]pyridine-6-carboxylate]
3 | 4.31 nM | 31.7 nM | 11.9 nM | Cc1[nH]c(-c2ccccc2Oc2ccccc2)c2cc(C(N)=O)[nH]c(=O)c12 [Example 11, 3-methyl-4-oxo-1-(2-phenoxyphenyl)-4,5-dihydro-2H-pyrrolo[3,4-c]pyridine-6-carboxamide]
4 | 4.38 nM | 23.4 nM | 14.1 nM | CNC(=O)c1cc2c(-c3ccccc3Oc3ccccc3)[nH]c(C)c2c(=O)[nH]1 [Example 13, N,3-dimethyl-4-oxo-1-(2-phenoxyphenyl)-4,5-dihydro-2H-pyrrolo[3,4-c]pyridine-6-carboxamide]
5 | 105 nM | 1120 nM | 307 nM | Cc1[nH]c(-c2ccccc2Oc2ccccc2)c2cc(C(=O)N3CCOCC3)[nH]c(=O)c12 [Example 15, 3-methyl-6-(morpholine-4-carbonyl)-1-(2-phenoxyphenyl)-2H-pyrrolo[3,4-c]pyridin-4(5H)-one]
6 | 32.7 nM | 616 nM | 170 nM | Cc1[nH]c(-c2ccccc2Oc2ccccc2)c2cc(C(=O)N3CCN(C)CC3)[nH]c(=O)c12 [Example 16, 3-methyl-6-(4-methylpiperazine-1-carbonyl)-1-(2-phenoxyphenyl)-2H-pyrrolo[3,4-c]pyridin-4(5H)-one]
7 | 27.7 nM | 177 nM | 2.29 nM | Cc1[nH]c(-c2ccccc2Oc2ccccc2)c2cc(C(=O)Nc3ccc(CN4CCN(C)CC4)cc3)[nH]c(=O)c12 [Example 17, 3-methyl-N-(4-((4-methylpiperazin-1-yl)methyl)phenyl)-4-oxo-1-(2-phenoxyphenyl)-4,5-dihydro-2H-pyrrolo[3,4-c]pyridine-6-carboxamide]
8 | 15.1 nM | 90.1 nM | 31.6 nM | Cc1[nH]c(-c2ccccc2Oc2ccccc2)c2cc(CO)[nH]c(=O)c12 [Example 18, 6-(hydroxymethyl)-3-methyl-1-(2-phenoxyphenyl)-2H-pyrrolo[3,4-c]pyridin-4(5H) one]
9 | 1.66 nM | 270 nM | 6.08 nM | Cc1[nH]c(-c2cc(NS(C)(=O)=O)ccc2Oc2ccc(F)cc2F)c2cc(C(N)=O)[nH]c(=O)c12 [Example 19, 1-(2-(2,4-difluorophenoxy)-5-(methylsulfonamido)phenyl)-3-methyl-4-oxo-4,5-dihydro-2H-pyrrolo[3,4-c]pyridine-6-carboxamide]
10 | 1.64 nM | 146 nM | 2.39 nM | Cc1[nH]c(-c2cc(NS(C)(=O)=O)ccc2Oc2ccccc2)c2cc(C(N)=O)[nH]c(=O)c12 [Example 20, 3-methyl-1-(5-(methylsulfonamido)-2-phenoxyphenyl)-4-oxo-4,5-dihydro-2H-pyrrolo[3,4-c]pyridine-6-carboxamide]
11 | 10.5 nM | 180 nM | – | Cc1[nH]c(-c2ccccc2Oc2ccccc2)c2cc(-c3nc(-c4ccncc4)no3)[nH]c(=O)c12 [Example 45, 3-methyl-1-(2-phenoxyphenyl)-6-(3-(pyridin-4-yl)-1,2,4-oxadiazol-5-yl)-2H-pyrrolo[3,4-c]pyridin-4(5H)-one]

Further lines, the compound ahead of its results:

Row | SMILES | Ki (BRD4 (BDI_K57-E168)) | EC50 [1] | Ki (BRD4 (BDII_E352-M457))
12 | COC(=O)c1cc2c(-c3ccccc3Oc3ccccc3)[nH]c(C)c2c(=O)[nH]1 [Example 1, methyl 3-methyl-4-oxo-1-(2-phenoxyphenyl)-4,5-dihydro-2H-pyrrolo[3,4-c]pyridine-6-carboxylate] | 3.04 nM | 67 nM | 24.6 nM
13 | COC(=O)c1cc2c(-c3cc(NS(C)(=O)=O)ccc3Oc3ccccc3)[nH]c(C)c2c(=O)[nH]1 [Example 3, methyl 3-methyl-1-(5-(methylsulfonamido)-2-phenoxyphenyl)-4-oxo-4,5-dihydro-2H-pyrrolo[3,4-c]pyridine-6-carboxylate] | 3.33 nM | 41.5 nM | 19.8 nM
14 | CCOC(=O)c1cc2c(-c3cc(N)ccc3Oc3ccc(F)cc3F)[nH]c(C)c2c(=O)[nH]1 [Example 4, ethyl 1-[5-amino-2-(2,4-difluorophenoxy)phenyl]-3-methyl-4-oxo-4,5-dihydro-2H-pyrrolo[3,4-c]pyridine-6-carboxylate] | 12.3 nM | 77.6 nM | 91.3 nM
15 | CCOC(=O)c1cc2c(-c3cc(NS(C)(=O)=O)ccc3Oc3ccccc3)[nH]c(C)c2c(=O)[nH]1 [Example 5, ethyl 3-methyl-1-(5-(methylsulfonamido)-2-phenoxyphenyl)-4-oxo-4,5-dihydro-2H-pyrrolo[3,4-c]pyridine-6-carboxylate] | 1.44 nM | 47.3 nM | 9.51 nM
16 | CCOC(=O)c1cc2c(-c3cc(NS(=O)(=O)CC)ccc3Oc3ccccc3)[nH]c(C)c2c(=O)[nH]1 [Example 6, ethyl 1-(5-(ethylsulfonamido)-2-phenoxyphenyl)-3-methyl-4-oxo-4,5-dihydro-2H-pyrrolo[3,4-c]pyridine-6-carboxylate] | 1.23 nM | 32.9 nM | 3.31 nM
17 | CCS(=O)(=O)Nc1ccc(Oc2ccccc2)c(-c2[nH]c(C)c3c(=O)[nH]c(C(=O)OC)cc23)c1 [Example 7, methyl 1-(5-(ethylsulfonamido)-2-phenoxyphenyl)-3-methyl-4-oxo-4,5-dihydro-2H-pyrrolo[3,4-c]pyridine-6-carboxylate] | 2.15 nM | 25.7 nM | 15.9 nM
18 | CCOC(=O)c1cc2c(-c3ccc(-c4cc(C)n[nH]4)cc3)[nH]c(C)c2c(=O)[nH]1 [Example 8, ethyl 3-methyl-1-[4-(3-methyl-1H-pyrazol-5-yl)phenyl]-4-oxo-4,5-dihydro-2H-pyrrolo[3,4-c]pyridine-6-carboxylate] | 95.6 nM | 737 nM | 615 nM
